Source: patent publication US4138485A, “Phenylalanine derivatives” (Kyowa Hakko Kogyo Kabushiki Kaisha, priority 1976, dated 1979)

What was measured:
[1] = test system: hyperlipemia induced by Triton; assay: Cholesterol-lowering activity on hyperlipemia induced by Triton in mice; assay type: in vivo, mice (male dd-strain); conditions: Mus musculus, po, 43 h, read-out: Ratio of the reduction of cholesterol
Protocol: (2) Cholesterol-Lowering activity on hyperlipemia induced by Triton in mice:
38 Groups, each consisting of 9 mice (male dd-strain, weight -- 19 to 21 g), were used for the test and control groups. […] Immediately after the administration and also after 20 hours from the administration of Triton, the mice were orally administered with 100 mg/kg of the compound shown in Table 3. 43 hours after the administration of Triton, the blood samples were collected by decapitation and then the corpuscle was removed by centrifugation. Cholesterol in the serum was determined by Zurkowski's method modified by Shibata (color of the test solution was developed by using sulfoalicyclic acid, acetic acid and sulfuric acid and the optical density of the solution was determined at 620 mμ.

[2] = Acute toxicity in rats; conditions: in vivo; rat, oral administration, after one week; read-out: Acute Toxicity (LD50), C
Protocol: (§1) (1) Acute toxicity and tonic convulsion in hind paw:
(§2) The acute toxicity and tonic convulsion occured by stimulus by hand touch were determined in the following manner to give the results shown in Table 2.
(b) Acute toxicity in rats:
28 Groups, each consisting of 5 rats (male Wistar strain, weight -- 200 g), were used for the test and control groups. The compounds shown in Table 2 were orally administered to the rats. After one week, the survival ratio was measured.

[3] = test system: Cholesterol in the serum; assay: Cholesterol-lowering activity on normal rats of Wistar strain (serum cholesterol, liver weight); assay type: in vivo, rats (male Wistar strain); conditions: continuous administration for 4 days, 0.3% in diet
Protocol: (3) Cholesteral-lowering activity on normal rats of Wistar strain:
(i) 22 Groups, each consisting of 5 rats (male Wistar strain, weight -- 150 to 180 g) were used for the test and control groups. After this, the blood samples were collected by decapitation and then the corpuscle was removed by centrifugation. Cholesterol in the serum was determined by Zurkowski's method modified by Shibata and also the liver was excised and weighed. The results are shown in Table 4 wherein the ratio of 100% denotes the amount of chloresterol and the weight of the liver of normal rats fed with powdery diet without the addition of the compound.

[4] = Acute toxicity in mice; conditions: in vivo, mouse, after one week
Protocol: as §1, §2
(a) Acute toxicity in mice:
38 Groups, each consisting of 5 mice (male dd-strain, weight -- 18 to 24 g), were used for the test and control groups. The compounds shown in Table 2 were administered orally or intraperitoneally to the mice. After one week, the survival ratio was measured.

[5] = oral administration, read-out: Acute Toxicity (LD50), A
[6] = ip, intraperitoneal administration, read-out: Acute Toxicity (LD50), B

O=C(N[C@@H](Cc1ccccc1)C(=O)O)SCc1cccc2ccccc12 [Compound 31, N-(α-naphthylmethylthiocarbonyl)-L-phenylalanine]
inhibition in vivo at 100 mg/kg [1]: 74% | LD50 at 168 h [2]: > 100 mg/kg | B - Ratio of decrease of liver weight [3]: 24.4% | LD50 at 168 h [4, 5]: > 1000 mg/kg

O=C(N[C@@H](Cc1ccccc1)C(=O)O)SCc1ccc(Cl)cc1 [Compound 7, N-(4-chlorobenzylthiocarbonyl)-L-phenylalanine]
inhibition in vivo at 100 mg/kg [1]: 94% | LD50 at 168 h [2]: > 100 mg/kg | LD50 at 168 h [4, 6]: > 100 mg/kg | LD50 at 168 h [4, 5]: > 300 mg/kg

O=C(N[C@@H](Cc1ccccc1)C(=O)O)SCc1ccc([N+](=O)[O-])cc1 [Compound 14, N-(4-nitrobenzylthiocarbonyl)-L-phenylalanine]
inhibition in vivo at 100 mg/kg [1]: 66% | LD50 at 168 h [2]: > 100 mg/kg | B - Ratio of decrease of liver weight [3]: 48.0% | LD50 at 168 h [4, 5]: > 1000 mg/kg

COC(=O)[C@H](Cc1ccccc1)NC(=O)[C@H](Cc1ccccc1)NC(=O)SCc1ccc(C)cc1 [Compound 6, N-(4-methylbenzylthiocarbonyl)-L-phenylalanyl-L-phenylalanine methylester]
inhibition in vivo at 100 mg/kg [1]: 39% | LD50 at 168 h [2]: > 100 mg/kg | LD50 at 168 h [4, 6]: > 100 mg/kg | LD50 at 168 h [4, 5]: > 300 mg/kg

CCOC(=O)[C@H](Cc1ccccc1)NC(=O)SCc1ccc(C)cc1 [Compound 3, N-(4-methylbenzylthiocarbonyl)-L-phenylalanine ethylester]
inhibition in vivo at 100 mg/kg [1]: 57% | LD50 at 168 h [4, 5]: > 1000 mg/kg

COC(=O)C(Cc1ccccc1)NC(=O)SCc1ccccc1 (racemic) [Compound 19, N-benzylthiocarbonyl-D,L-phenylalanine methylester]
inhibition in vivo at 100 mg/kg [1]: 84% | LD50 at 168 h [2]: > 100 mg/kg | B - Ratio of decrease of liver weight [3]: 19.8% | LD50 at 168 h [4, 5]: > 1000 mg/kg

COC(=O)[C@H](Cc1ccccc1)NC(=O)SCc1ccc(Cl)cc1 [Compound 8, N-(4-chlorobenzylthiocarbonyl)-L-phenylalanine methylester]
inhibition in vivo at 100 mg/kg [1]: 88% | LD50 at 168 h [2]: > 200 mg/kg | LD50 at 168 h [4, 6]: > 100 mg/kg | LD50 at 168 h [4, 5]: > 4000 mg/kg

COC(=O)[C@H](Cc1ccccc1)NC(=O)SCc1ccc([N+](=O)[O-])cc1 [Compound 15, N-(4-nitrobenzylthiocarbonyl)-L-phenylalanine methylester]
inhibition in vivo at 100 mg/kg [1]: 29% | LD50 at 168 h [2]: > 100 mg/kg | B - Ratio of decrease of liver weight [3]: 38.9% | LD50 at 168 h [4, 5]: > 1000 mg/kg

COC(=O)[C@H](Cc1ccccc1)NC(=O)SCc1cc(C)ccc1C [Compound 27, N-(2,5-dimethylbenzylthiocarbonyl)-L-phenylalanine methylester]
inhibition in vivo at 100 mg/kg [1]: 30% | LD50 at 168 h [2]: > 100 mg/kg | B - Ratio of decrease of liver weight [3]: -0.2% | LD50 at 168 h [4, 5]: > 1000 mg/kg

COC(=O)[C@H](Cc1ccccc1)NC(=O)SCc1c(C)cccc1C [Compound 25]
inhibition in vivo at 100 mg/kg [1]: 37% | LD50 at 168 h [2]: > 100 mg/kg | B - Ratio of decrease of liver weight [3]: 45.3% | LD50 at 168 h [4, 5]: > 1000 mg/kg

COC(=O)[C@H](Cc1ccccc1)NC(=O)SCc1cccc(C)c1 [Compound 23, N-(3-methylbenzylthiocarbonyl)-L-phenylalanine methylester]
inhibition in vivo at 100 mg/kg [1]: 48% | LD50 at 168 h [4, 5]: > 1000 mg/kg

Cc1ccc(CSC(=O)NC(Cc2ccccc2)C(=O)O)cc1 (racemic) [Compound 35, N-(4-methylbenzylthiocarbonyl)-DL-phenylalanine]
inhibition in vivo at 100 mg/kg [1]: 22% | LD50 at 168 h [4, 5]: > 1000 mg/kg

NC(=O)[C@H](Cc1ccccc1)NC(=O)SCc1ccc(Cl)cc1 [Compound 9, N-(4-chlorobenzylthiocarbonyl)-L-phenylalanine amide]
inhibition in vivo at 100 mg/kg [1]: 57% | LD50 at 168 h [2]: > 100 mg/kg | B - Ratio of decrease of liver weight [3]: 71% | LD50 at 168 h [4, 6]: > 100 mg/kg | LD50 at 168 h [4, 5]: > 1000 mg/kg

CCNC(=O)[C@H](Cc1ccccc1)NC(=O)SCc1ccc(C)cc1 [Compound 5, N-(4-methylbenzylthiocarbonyl)-L-phenylalanine ethylamide]
inhibition in vivo at 100 mg/kg [1]: 0% | LD50 at 168 h [2]: > 100 mg/kg | LD50 at 168 h [4, 6]: > 100 mg/kg | LD50 at 168 h [4, 5]: > 1000 mg/kg

Cc1c(C)c(C)c(CSC(=O)N[C@@H](Cc2ccccc2)C(=O)O)c(C)c1C [Compound 29, N-(2,3,4,5,6-pentamethylbenzylthiocarbonyl)-L-phenylalanine]
inhibition in vivo at 100 mg/kg [1]: 59% | LD50 at 168 h [2]: > 100 mg/kg | LD50 at 168 h [4, 5]: > 1000 mg/kg

CCNC(=O)[C@H](Cc1ccccc1)NC(=O)SCc1ccc(Cl)cc1 [Compound 10, N-(4-chlorobenzylthiocarbonyl)-L-phenylalanine ethylamide]
inhibition in vivo at 100 mg/kg [1]: 43% | LD50 at 168 h [2]: > 100 mg/kg | LD50 at 168 h [4, 6]: > 100 mg/kg | LD50 at 168 h [4, 5]: > 300 mg/kg

Cc1ccc(C)c(CSC(=O)N[C@@H](Cc2ccccc2)C(=O)O)c1 [Compound 26, N-(2,5-dimethylbenzylthiocarbonyl)-L-phenylalanine]
inhibition in vivo at 100 mg/kg [1]: 43% | LD50 at 168 h [2]: > 100 mg/kg | B - Ratio of decrease of liver weight [3]: 0.8% | LD50 at 168 h [4, 5]: > 1000 mg/kg

Cc1cccc(C)c1CSC(=O)N[C@@H](Cc1ccccc1)C(=O)O [Compound 24, N-(2,6-dimethylbenzylthiocarbonyl)-L-phenylalanine]
inhibition in vivo at 100 mg/kg [1]: 34% | LD50 at 168 h [2]: > 100 mg/kg | B - Ratio of decrease of liver weight [3]: 15.0% | LD50 at 168 h [4, 5]: > 1000 mg/kg

CC(C)(C)c1ccc(CSC(=O)N[C@@H](Cc2ccccc2)C(=O)O)cc1 [Compound 28, N-(4-tert-butylbenzylthiocarbonyl)-L-phenylalanine]
inhibition in vivo at 100 mg/kg [1]: 50% | LD50 at 168 h [2]: > 100 mg/kg | B - Ratio of decrease of liver weight [3]: 10.6% | LD50 at 168 h [4, 5]: > 1000 mg/kg

COC(=O)[C@H](Cc1ccccc1)NC(=O)SCc1ccc(O)cc1 [Compound 37, N-(4-hydroxybenzylthiocarbonyl)-L-phenylalanine methylester]
inhibition in vivo at 100 mg/kg [1]: 74% | LD50 at 168 h [4, 5]: > 1000 mg/kg

Cc1ccc(CSC(=O)N[C@@H](Cc2ccccc2)C(N)=O)cc1 [Compound 4, N-(4-methylbenzylthiocarbonyl)-L-phenylalanine amide]
inhibition in vivo at 100 mg/kg [1]: 23% | LD50 at 168 h [2]: > 100 mg/kg | B - Ratio of decrease of liver weight [3]: 6.2% | LD50 at 168 h [4, 6]: > 100 mg/kg | LD50 at 168 h [4, 5]: > 1000 mg/kg

O=C(N[C@@H](Cc1ccccc1)C(=O)O)SCc1ccc(F)cc1 [Compound 33, N-(4-fluorobenzylthiocarbonyl)-L-phenylalanine]
inhibition in vivo at 100 mg/kg [1]: 79% | LD50 at 168 h [4, 5]: > 1000 mg/kg

COC(=O)[C@H](Cc1ccccc1)NC(=O)SCc1cccc2ccccc12 [Compound 32]
inhibition in vivo at 100 mg/kg [1]: 56% | LD50 at 168 h [2]: > 100 mg/kg | B - Ratio of decrease of liver weight [3]: 12.4% | LD50 at 168 h [4, 5]: > 1000 mg/kg

Cc1ccc(CSC(=O)N[C@H](Cc2ccccc2)C(=O)O)cc1 [Compound 34, N-(4-methylbenzylthiocarbonyl)-D-phenylalanine]
inhibition in vivo at 100 mg/kg [1]: 11% | LD50 at 168 h [4, 5]: > 1000 mg/kg

CC(=O)Oc1ccc(CSC(=O)N[C@@H](Cc2ccccc2)C(=O)O)cc1 [Compound 36, N-(4-acetoxybenzylthiocarbonyl)-L-phenylalanine]
inhibition in vivo at 100 mg/kg [1]: 83% | LD50 at 168 h [4, 5]: > 1000 mg/kg

COC(=O)[C@H](Cc1ccccc1)NC(=O)[C@H](Cc1ccccc1)NC(=O)SCc1ccc(Cl)cc1 [Compound 11, N-(4-chlorobenzylthiocarbonyl)-L-phenylalanyl-L-phenylalanine methylester]
inhibition in vivo at 100 mg/kg [1]: 75% | LD50 at 168 h [2]: > 100 mg/kg | LD50 at 168 h [4, 6]: > 100 mg/kg | LD50 at 168 h [4, 5]: > 300 mg/kg
